According to PMC11341359, “Assessing the immunogenicity risk of salmon calcitonin peptide impurities using in silico and in vitro methods” (Frontiers in Pharmacology, 2024):
Bridge positions count the residues as written; N and C are the ends. Ends that are not written are not given here. Peptide text beside a SMILES is read from it.

Assays:
HLA DRB1*1101 = target: T1, HLA DRB1*1101 (Homo sapiens, UniProt P01903+P01911, A100R/A169T/A87E/I96F/K41T/L162R/M171V/P40S/Q125H/Q178H/Q39Y/Q99D/R42S/S66Y/T262R/V115G/W38E); experiment: Class II HLA competition binding assay; conditions: short assay peptides (Cys7 replaced with Ser), competition with biotinylated allele-specific peptide, soluble HLA DR, overnight, time-resolved fluorescence, triplicate, seven concentrations
T1 construct: incubated overnight to equilibrium with a soluble HLA DR molecule; purchased Benaroya Research Institute, Seattle, Washington
Experimental: (§1) The class II HLA binding assays performed for these studies measure the binding affinity of a target peptide to HLA DRB1*0101, *0301, *0401, *0701, *0901, *1101, *1301, and *1501 in a standardized competition assay. This assay was originally described by [Steere et al. (2006)] and adapted by EpiVax. Previous publications have described the assay in detail ([McMurry et al., 2007]; [Ardito et al., 2011]). Briefly, unlabeled test peptides are incubated overnight to equilibrium with a soluble HLA DR molecule (Benaroya Research Institute, Seattle, Washington) and a biotinylated, allele-specific competitor peptide. The binding reaction is then neutralized, and peptide–HLA complexes are transferred to a 96-well plate coated with the pan-HLA DR antibody, clone L243 (BioLegend), and incubated overnight. The following day, Europium-labeled streptavidin (PerkinElmer, Waltham, MA) is added to identify the peptide–HLA complexes. An indirect measure of binding is determined by time-resolved fluorescence. Each peptide–HLA binding reaction is evaluated in triplicate over a range of seven concentrations. The percent inhibition values at seven distinct concentrations are used to calculate the IC50 value, defined as the concentration at which the test peptide inhibits 50% of the labeled competitor peptide.
(§2) Peptides that bind to the HLA at an IC50 value of 100 nM or less are considered very high-affinity binders. Peptides that bind at IC50 values ranging from 100 nM to 1,000 nM are considered high-affinity binders. Peptides that bind at IC50 values ranging from 1,000 nM to 10,000 nM are considered moderate-affinity binders. Peptides that bind at IC50 values ranging from 10,000 nM to 100,000 nM are considered low-affinity binders, and those with IC50 values ranging from 100,000 nM to 1,000,000 nM are considered negligible-affinity binders. […] We note that these concentrations are specific for the in vitro HLA-binding assay and are used to compare the relative binding affinities of the impurity sequences to the API and independent from the peptide concentrations described for the in vitro T-cell assays described below.

HLA DRB1*0701 = HLA DRB1*0701 (Homo sapiens, UniProt P01903+P01911, A100R/A102G/A103Q/D57E/D86V/E43K/F76Y/K127E/L162R/M171V/P40G/Q125H/Q99D/R33Q/R42Y/R54Q/S133A/S66F/T210M/V115G/Y107V/Y59L/Y89S); experiment: Class II HLA competition binding assay; conditions: short assay peptides (Cys7 replaced with Ser); competition with biotinylated allele-specific peptide, soluble HLA DR, overnight, time-resolved fluorescence, triplicate, seven concentrations
Experimental: as §1, §2

HLA DRB1*1301 = target: T2, HLA DRB1*1301 (Homo sapiens, UniProt P01903+P01911, A100E/A169T/K41T/L162R/M171V/P40S/Q125H/Q178H/Q39Y/Q99D/R42S/S66N/T262R/W38E/Y61H); experiment: Class II HLA competition binding assay; conditions: short assay peptides (Cys7 replaced with Ser), competition with biotinylated allele-specific peptide, soluble HLA DR, overnight, time-resolved fluorescence, triplicate, seven concentrations; for IC50, HLA DRB1*1301: unit not given
T2 construct: incubated overnight to equilibrium with a soluble HLA DR molecule; purchased Benaroya Research Institute, Seattle, Washington
Experimental: as §1, §2

HLA DRB1*0901 = HLA DRB1*0901 (Homo sapiens, UniProt P01903+P01911, A100R/A103E/D57H/D86V/F55Y/F60I/F76Y/I96F/K127E/L162R/M171V/P40D/Q125H/Q99R/R33Q/R42F/S133A/S66N/T210M/V115G/W38K/Y107V/Y59G/Y89S); experiment: Class II HLA competition binding assay; conditions: short assay peptides (Cys7 replaced with Ser); competition with biotinylated allele-specific peptide, soluble HLA DR, overnight, time-resolved fluorescence, triplicate, seven concentrations
Experimental: as §1, §2

HLA DRB1*0401 = target: T3, HLA DRB1*0401 (Homo sapiens, UniProt P01903+P01911, A100K/A169T/F76Y/I96L/K127E/L162R/M171V/N62H/P40V/Q125Y/R42H/S133A/S149N/S66Y/V115G/V209L/W38E); experiment: Class II HLA competition binding assay; conditions: short assay peptides (Cys7 replaced with Ser); competition with biotinylated allele-specific peptide, soluble HLA DR, overnight, time-resolved fluorescence, triplicate, seven concentrations
T3 construct: incubated overnight to equilibrium with a soluble HLA DR molecule; purchased Benaroya Research Institute, Seattle, Washington
Experimental: as §1, §2

HLA DRB1*0101 = target: T4, HLA DRB1*0101 (Homo sapiens, UniProt P01903+P01911, A100R/D57E/F55L/F60I/F76Y/I96L/L162R/M171V/P40L/Q125E/R42F/V115G/Y59C); experiment: Class II HLA competition binding assay; conditions: short assay peptides (Cys7 replaced with Ser); competition with biotinylated allele-specific peptide, soluble HLA DR, overnight, time-resolved fluorescence, triplicate, seven concentrations; unit inferred
T4 construct: incubated overnight to equilibrium with a soluble HLA DR molecule; purchased Benaroya Research Institute, Seattle, Washington
Experimental: as §1, §2

HLA DRB1*0301 = target: T5, HLA DRB1*0301 (Homo sapiens, UniProt P01903+P01911, A100K/A102G/A103R/A169T/F55Y/I96L/K41T/L162R/M171V/P40S/Q125H/Q178H/Q39Y/R42S/S66N/T106N/T262R/W38E/Y61H); experiment: Class II HLA competition binding assay; conditions: short assay peptides (Cys7 replaced with Ser), competition with biotinylated allele-specific peptide, soluble HLA DR, overnight, time-resolved fluorescence, triplicate, seven concentrations; for IC50, HLA DRB1*0301: unit not given
T5 construct: incubated overnight to equilibrium with a soluble HLA DR molecule; purchased Benaroya Research Institute, Seattle, Washington
Experimental: as §1, §2

HLA DRB1*1501 = target: T6, HLA DRB1*1501 (Homo sapiens, UniProt P01903+P01911); experiment: Class II HLA competition binding assay; conditions: short assay peptides (Cys7 replaced with Ser); competition with biotinylated allele-specific peptide, soluble HLA DR, overnight, time-resolved fluorescence, triplicate, seven concentrations; unit inferred
T6 construct: incubated overnight to equilibrium with a soluble HLA DR molecule; purchased Benaroya Research Institute, Seattle, Washington
Experimental: as §1, §2

human donor PBMCs = experiment: In vitro immunogenicity protocol (IVIP) naïve T-cell assay, IFNγ FluoroSpot; assay type: cell-based; conditions: individual full-length peptides at 20 μg/mL, 14 days, then 48 h IFNγ FluoroSpot; 16 donors; positive: SFC > 50 per 10^6, SI ≥ 2, p < 0.05 vs medium
Experimental: To improve the sensitivity of the T-cell assays, fresh (not frozen) blood samples were obtained from human blood donors for the T-cell assays (internal observations). Specifically, PBMCs were isolated from leukocyte reduction filters obtained from the Rhode Island Blood Center (RIBC) in Providence, RI. To confirm the sufficient breadth of HLA coverage in the donor cohort, high-resolution (4-digit) class II HLA haplotyping of donors was performed at the Transplant Immunology Laboratory at Hartford Hospital in Hartford, CT, using the sequence-specific oligonucleotide method (SSP-PCR). […] supertype alleles were expressed by the donor PBMCs used in the assays reported here (HLA DRB1*0301, *0401, *0701, *1101, *1301, and *1501). The HLA identified for the cohort of subjects used in this study is representative of 81.81% of the HLA alleles expressed by the global population. Forty percent of the donors were female and 60% of the donors were male, and their ages ranged from 17 to 83 years. Donor cohort demographic information and HLA types for each donor are provided in Supplementary Figure S1. To measure the naïve T-cell response to salmon calcitonin and impurity peptides, cells were plated at a density of 2.5 × 10^5 cells per well in 96-well U-bottom cell plates in RPMI 1640 cell culture medium supplemented with IL-2 (10 ng/mL) and IL-7 (20 ng/mL) (Gibco). The cells were incubated with […]®, or a synthetic salmon calcitonin peptide, or individual peptide impurities, at a concentration of 20 μg/mL for 14 days at 37°C/5% CO2, with medium exchanges that include cytokine support (IL-2 and IL-7) on days 4, 7, and 11. A concentration of 20 μg/mL (5.8 μM) was the dose selected for the SCT API and the four selected impurities, following a dose-ranging study performed with […]® to determine the maximum dose at which a T-cell response could be observed with no observed toxicity to the cells. The dose-ranging study was performed following the same protocol as described above. The following control antigens were used in the T-cell assays for each of the PBMC samples: positive controls, keyhole limpet hemocyanin (KLH; Thermo Fisher), and the antigenic peptide pool CEFT (ImmunoSpot). In addition, human serum albumin (HSA; Sigma-Aldrich) was used as a negative control antigen, and phytohemagglutinin (PHA; Thermo Fisher), a T-cell mitogen, was used to confirm T-cell functionality. […] Responses were considered positive if (1) the number of spots was at least twice the background (stimulation index [SI] ≥ 2); (2) there were greater than 50 spot-forming cells (SFCs) per 1.0 × 10^6 PBMCs; and (3) responses were statistically different from the media (Student's t-test). Each of the test articles (SCT API, RLD, or impurity peptide) and each of the positive and negative controls were evaluated in nine replicate wells containing donor PBMCs. Following the 14-day incubation, cells in the nine replicate wells were collected, pooled by the treatment condition, and re-plated in triplicate on a precoated anti-human IFNγ FluoroSpot plate (Mabtech) at a concentration of 1.0 × 10^5 cells per well in the presence of an appropriate test article or control reagent in supplemented RPMI 1640 culture medium. The FluoroSpot plates were incubated for 48 h at 37°C/5% CO2. After 48 h, FluoroSpot plates were developed according to the manufacturer's directions. Spots were counted on an iSpot Spectrum FluoroSpot reading system (AID, Strassberg, Germany) using software 7.0, build 14790. Fluorophore-specific spot parameters were defined using the spot size, spot intensity, and spot gradient. A spot separation algorithm was applied for optimal spot detection. Analysis and counting of spots were performed by unbiased experts at ZellNet Consulting, Inc. (Fort Lee, NJ).

IC50 (HLA DRB1*1101; unit inferred) [µM] | IC50, HLA DRB1*1101 (HLA DRB1*1101; unit not given) | IC50 (HLA DRB1*0701) [µM] | IC50, HLA DRB1*0701 (HLA DRB1*0701) | IC50 (HLA DRB1*1301; unit inferred) [µM] | IC50, HLA DRB1*1301 (HLA DRB1*1301) | IC50 (HLA DRB1*0901) [µM] | IC50, HLA DRB1*0901 (HLA DRB1*0901) | IC50 (HLA DRB1*0401) [µM] | IC50, HLA DRB1*0401 (HLA DRB1*0401) | IC50 (HLA DRB1*0101) [µM] | IC50 (HLA DRB1*0301; unit inferred) [µM] | IC50, HLA DRB1*0301 (HLA DRB1*0301) | IC50 (HLA DRB1*1501) [µM] | Percentage of Responding Donors (human donor PBMCs) [%] | Responding Donors (human donor PBMCs) | Compound
> 1000 | loss of binding | > 1000 | non-binder | > 1000 | non-binder | > 1000 | non-binder | > 1000 | non-binder | 12.3 | > 1000 | non-binder | 12.8 |  |  | CC(=O)NCCCC[C@H](NC(=O)CNC(=O)[C@H](CC(C)C)NC(=O)[C@@H](NC(=O)[C@H](CO)NC(=O)[C@@H](NC(=O)[C@@H](N)CO)[C@@H](C)O)C(C)C)C(=O)N[C@@H](CC(C)C)C(=O)N[C@@H](CO)C(=O)N[C@@H](CCC(N)=O)C(=O)N[C@@H](CCC(=O)O)C(=O)N[C@@H](CC(C)C)C(=O)N[C@@H](Cc1c[nH]cn1)C(=O)N[C@@H](CCCCN)C(=O)N[C@@H](CC(C)C)C(=O)O [LYS-AC11_SCT(5-19)] (H-STSVLGK(Ac)LSQELHKL-OH)
 |  |  |  |  |  |  |  |  |  |  |  |  |  | 69 | 11 | CSNLSTCVLGKLSQELHKLQTYPRTNTGSGTTP (disulfide 1-7 (inferred)) [17_ENDO-THR31_SCT, full-length SCT impurity, insertion of threonine at position 31]
 |  |  |  |  | did not bind |  |  |  | did not bind |  |  | did not bind |  |  |  | CC(C)C[C@H](NC(=O)[C@H](CCC(=O)O)NC(=O)[C@H](CCC(N)=O)NC(=O)[C@@H](N)CO)C(=O)N[C@@H](Cc1c[nH]cn1)C(=O)N[C@@H](CCCCN)C(=O)N[C@@H](CC(C)C)C(=O)N[C@@H](CCC(N)=O)C(=O)N[C@@H](Cc1ccc(O)cc1)C(=O)N1CCC[C@H]1C(=O)N[C@@H](CCCNC(=N)N)C(=O)N[C@H](C(=O)N[C@@H](CC(N)=O)C(=O)N[C@H](C(=O)NCC(=O)N[C@@H](CO)C(=O)NCC(=O)N[C@H](C(=O)O)[C@@H](C)O)[C@@H](C)O)[C@@H](C)O [DES-THR21_SCT(13-27)] (H-SQELHKLQYPRTNTGSGT-OH; N-terminus and C-terminus assumed)
